Results taken from ChEMBL document CHEMBL3351580, “Pyrano-isochromanones as IL-6 inhibitors: synthesis, in vitro and in vivo antiarthritic activity” (J Med Chem, 2014).

Experiments:
THP-1 [1] = experiment: Inhibition of LPS-induced IL6 production in human THP1 cells after 24 hrs; format: functional, cell-based; settings: THP-1, 24 h
THP-1 [2] = experiment: Inhibition of LPS-induced TNFalpha production in human THP1 cells after 24 hrs; format: functional, cell-based; settings: THP-1, 24 h
[3] = Inhibition of concanavalin A-induced cell proliferation of T cells (unknown origin) at 10 uM after 72 hrs by MTT assay; format: functional
[4] = Solubility in water; format: physicochemical
B-cell = experiment: Inhibition of LPS-induced cell proliferation of B cells (unknown origin) at 10 uM after 72 hrs by MTT assay; format: functional

Compound `CCOC(=O)N1CCN(Cc2c(O)c(OC)c(O)c3c2C(=O)O[C@@H]2[C@@H](O)[C@H](O)[C@@H](CO)O[C@@H]32)CC1` has an IC50 (THP-1 [1]) of 177 nM, an IC50 (THP-1 [2]) greater than 30000 nM and an inhibition at 10 µM [3] of 27%. For the same compound, the solubility [4] was greater than 1500 µg/mL and the inhibition at 10 µM (B-cell) was 9%.

In the case of `COc1c(O)c(CN2CCC(Cc3ccccc3)CC2)c2c(c1O)[C@@H]1O[C@H](CO)[C@@H](O)[C@H](O)[C@H]1OC2=O`, the IC50 (THP-1 [1]) is reported as 371 nM, the IC50 (THP-1 [2]) is reported as greater than 30000 nM and the inhibition at 10 µM [3] is reported as 16%. For the same compound, the solubility [4] was greater than 1500 µg/mL and the inhibition at 10 µM (B-cell) was 18.2%.

`COc1c(O)c(CN(C)C)c2c(c1O)[C@@H]1O[C@H](CO)[C@@H](O)[C@H](O)[C@H]1OC2=O` gave an IC50 (THP-1 [1]) of 211 nM, an IC50 (THP-1 [2]) greater than 30000 nM and an inhibition at 10 µM [3] of 21.1%. For the same compound, the solubility [4] was greater than 1500 µg/mL and the inhibition at 10 µM (B-cell) was 44%.

Work on `CCCN(CCC)Cc1c(O)c(OC)c(O)c2c1C(=O)O[C@@H]1[C@@H](O)[C@H](O)[C@@H](CO)O[C@@H]21` yielded an IC50 (THP-1 [1]) of 361 nM, an IC50 (THP-1 [2]) greater than 30000 nM and an inhibition at 10 µM [3] of 10.3%. For the same compound, the solubility [4] was greater than 1500 µg/mL and the inhibition at 10 µM (B-cell) was 2.8%.

In the case of `COc1c(O)c(CN2C[C@@H](O)CC2C(=O)O)c2c(c1O)[C@@H]1O[C@H](CO)[C@@H](O)[C@H](O)[C@H]1OC2=O` (stereo not given in full), the IC50 (THP-1 [1]) is reported as 322 nM, the IC50 (THP-1 [2]) is reported as greater than 30000 nM and the inhibition at 10 µM [3] is reported as 6.5%. The solubility [4] was greater than 1500 µg/mL and the inhibition at 10 µM (B-cell) was 11.4%.

In the case of `COc1c(O)c(CN2CCCCC2)c2c(c1O)[C@@H]1O[C@H](CO)[C@@H](O)[C@H](O)[C@H]1OC2=O`, the IC50 (THP-1 [1]) is reported as 317 nM, the IC50 (THP-1 [2]) is reported as greater than 30000 nM and the inhibition at 10 µM [3] is reported as 13%. The solubility [4] was greater than 1500 µg/mL and the inhibition at 10 µM (B-cell) was 34.8%.

In the case of `COc1c(O)c(CN2CCOCC2)c2c(c1O)[C@@H]1O[C@H](CO)[C@@H](O)[C@H](O)[C@H]1OC2=O`, the IC50 (THP-1 [1]) is reported as 1860 nM, the IC50 (THP-1 [2]) is reported as 16000 nM and the inhibition at 10 µM [3] is reported as 37.5%. The solubility [4] was greater than 1500 µg/mL and the inhibition at 10 µM (B-cell) was 31.6%.

In the case of `COc1c(O)c(CN(C)CC(=O)O)c2c(c1O)[C@@H]1O[C@H](CO)[C@@H](O)[C@H](O)[C@H]1OC2=O`, the IC50 (THP-1 [1]) is reported as 1630 nM, the IC50 (THP-1 [2]) is reported as greater than 30000 nM and the inhibition at 10 µM [3] is reported as 4%. It also gave a solubility [4] greater than 1500 µg/mL and an inhibition at 10 µM (B-cell) of 17%.

Work on `CCN1CCN(Cc2c(O)c(OC)c(O)c3c2C(=O)O[C@@H]2[C@@H](O)[C@H](O)[C@@H](CO)O[C@@H]32)CC1` yielded an IC50 (THP-1 [1]) of 195 nM, an IC50 (THP-1 [2]) greater than 30000 nM and an inhibition at 10 µM [3] of 34.2%. For the same compound, the solubility [4] was greater than 1500 µg/mL and the inhibition at 10 µM (B-cell) was 44.2%.

`COc1c(O)c(CN2CCC[C@H]2C(=O)O)c2c(c1O)[C@@H]1O[C@H](CO)[C@@H](O)[C@H](O)[C@H]1OC2=O` gave an IC50 (THP-1 [1]) of 918 nM, an IC50 (THP-1 [2]) of 25500 nM and an inhibition at 10 µM [3] of 17.3%. For the same compound, the solubility [4] was greater than 1500 µg/mL and the inhibition at 10 µM (B-cell) was 28.2%.

Compound `COc1c(O)c(CN2CCC[C@H]2CO)c2c(c1O)[C@@H]1O[C@H](CO)[C@@H](O)[C@H](O)[C@H]1OC2=O` has an IC50 (THP-1 [1]) of 745 nM, an IC50 (THP-1 [2]) of 13500 nM and an inhibition at 10 µM [3] of 37.5%. It also gave a solubility [4] greater than 1500 µg/mL and an inhibition at 10 µM (B-cell) of 31.6%.

Compound `COc1c(O)c(CN2CCC(c3ccccc3)CC2)c2c(c1O)[C@@H]1O[C@H](CO)[C@@H](O)[C@H](O)[C@H]1OC2=O` has an IC50 (THP-1 [1]) of 351 nM, an IC50 (THP-1 [2]) greater than 30000 nM and an inhibition at 10 µM [3] of 37.2%. The solubility [4] was greater than 1500 µg/mL and the inhibition at 10 µM (B-cell) was 28.2%.

Work on `COc1c(O)c(CN2CCCC2)c2c(c1O)[C@@H]1O[C@H](CO)[C@@H](O)[C@H](O)[C@H]1OC2=O` yielded an IC50 (THP-1 [1]) of 755 nM, an IC50 (THP-1 [2]) greater than 30000 nM and an inhibition at 10 µM [3] of 14.8%. For the same compound, the solubility [4] was greater than 1500 µg/mL and the inhibition at 10 µM (B-cell) was 2.5%.
